1 substance from patent US6511971B1, “Substituted perhalogenated phthalocyanines” (Brown University Research Foundation, priority 1998, dated 2003) can be followed below.

Data set [1] deals with EMT-6 mouse mammary tumor cells. Description: In vitro phototoxicity: cell photo-inactivation, MTT cell survival assay. Conditions: EMT-6 cells. The format is cell-based. The method, then:
Chremophor emulsions were prepared and cell photo inactivation was determined by J. E. van Lier and colleagues at the University of Sherbrooke, Sherbrooke, QC, Canada, in accordance with published procedures. (Alleman et al. Int. J. Cancer, 72:289-294 (1997))
Chremophor EL (CRM) was obtained from BASF (Toronto, Canada). All solvents were of analytical grade, and all other chemicals were commercially available products. Zinc octakis (perfluoroisopropyl) perfluorophthalocyanine (“ZnPcF64”, 2.5 mg) was first dissolved in methanol (2 mL). 500 μL of Chremophor and 150 μL of propane diol were added to the solution. The methanol was evaporated by rotory evaporation at room temperature. The residue was diluted with PBS to 5 mL and sterile filtered (0.2 μm). […]
After incubation, cells were rinsed twice with PBS, refed with 100 μl Waymouth 15% FBS and exposed to red light. […] The fluence rate calculated over the absorbance peaks of the dyes (660-700 nm) was 10 mW cm^−2, for a total fluence of 0.6-36 J/cm^2. […] Plates were incubated overnight at 37° C., after which the absorbance was read at 595 nm by means of a microplate reader (BioRad, Mississauga, Canada). The average absorbance of the blank wells in which cells were omitted was subtracted from the readings of the other wells. The average absorbance of the control cells, which were incubated with dye-free Waymouth 1% FBS, represents 100% cell survival. […]

For another data set, the system named is EMT-6 tumor. Put plainly: In vivo phototoxicity: photodynamic therapy in murine EMT-6 tumor model. Also noted: species or system BALB/c mice. Conditions: CRM emulsion. The method, then: The in vivo phototoxicity effects of ZnPcF64 on mouse tumors were determined by J. E. van Lier and colleagues at the University of Sherbrooke, Sherbrooke, QC, Canada, in accordance with published procedures. (Alleman et al. Int. J. Cancer, 72:289-294 (1997))
Experiments were performed on male BALB/c mice (16-22 g) and female Fisher CDF (F-344) rats (approx. 150 g) (Charles River, Montreal, Canada) following a protocol approved by the Canadian Council on Animal Care and an in-house ethics committee. Animals were allowed free access to water and food throughout the course of the experiments. Before tumor implantation, hair on the hind legs and back of the mice was removed by shaving and chemical depilating (Nair®, Whitehall, Mississauga, Canada). A tumor was implanted on each hind thigh by intradermal injection of 2 times 10^5 EMT-6 cells suspended in 0.05 ml Waymouth's growth medium. Biodistribution and photodynamic activity of ZnPcF64 were assayed using a murine EMT-6 tumor model (Allémann et al. Int. J. Cancer, 72:289-294 (1997)).
For PDT studies, mice were used 6-8 days after tumor inoculation (tumor size: 3-5 mm diameter, 2-3 mm thickness). At this time point, the tumor is sufficiently large to be measured, while therapeutic response can be observed without interference of spontaneous necrosis (Margaron et al. Anticancer Res. 16:613-620 (1996)). Animals were given an i.v. injection of ZnPcF64 formulated as a CRM emulsion at I or 2.5 μmol kg^−1 (0.2 ml), and one tumor was treated with red light 24-72 hr later, while the other tumor served as a control. Tumors were illuminated with an 8-mm diameter beam of 650-700 nm light ([…] for a total fluence of 100-400 J .cm^−2) generated by a 1,000 W Xenon lamp, equipped with a 10-cm circulating water filter and 2 glass filters (Corion LL650 and LS700, Holliston, Mass.). A positive tumor response (necrosis) was assigned to tumors which appeared macroscopically as flat and necrotic tissues within a few days after PDT (Allémann et al. Int. J Canc. 66:821-824 (1996)). […]

Consider “Zinc Octakis (perfluoroisopropyl) Perfluorophthalocyanine, Bis-acetone Solvate [ZnPcF64]”, for which the phototoxic effects result in data set [1] (CRM emulsion at 1 and 3 μM, 1 or 24 hours incubation, red light 660-700 nm, 0.6-36 J/cm^2, any conditions) is “No phototoxic effects”. In data set [1] (highest dye concentrations and longest light exposure), this substance came in with a Cell survival of 100%. Moreover, in the data set with EMT-6 tumor (1 μmol/kg i.v., 650-700 nm light 24-72 hr later, EMT-6 tumor in mice), the “tumor response after PDT” value is “complete tumor necrosis”. In addition, in the data set on EMT-6 tumor (1 μmol/kg i.v., 650-700 nm light, EMT-6 tumor in mice), the “inflammation after PDT” value is on record as “some inflammation”. In the data set with EMT-6 tumor (2.5 μmol/kg i.v., tumor-bearing mice), the “outcome of treated mice (lethality)” value is on record as “died of shock”.
